{"source": "patent US6703403B2", "about": "“Method for improving pharmacokinetics” (Abbott Laboratories, priority 1995, dated 2004)", "key": {"[1]": {"assay": "Pharmacokinetics of HIV protease inhibitors in rats, alone vs. in combination with ritonavir", "assay_type": "in vivo", "settings": "rat, po, 10 mg/kg; for AUC(0-t): read-out: AUC (0-8 h)", "experimental": "Rats (male, Sprague-Dawley derived, 0.3-0.45 kg) were fasted overnight prior to dosing, but were permitted water ad libitum. […] The solutions, administered orally by gavage to a group of rats at a dose volume of 2 ml/kg, provided a 10 mg/kg dose of each compound. […] The plasma was separated from the red cells by centrifugation and frozen (−30° C.) until analysis. […] The peak plasma concentration (Cmax) and time to peak plasma concentration (Tmax) for each rat were obtained directly from the plasma concentration data. The area under the curve was calculated by the trapezoidal method over the time course of the study. The plasma elimination half life was obtained from NONLIN84 or from a log-linear regression of the terminal plasma concentrations as a function of time after dosing. Each combination was evaluated in a group containing at least three rats; the values reported are averages for each group of animals. The data obtained from the combination was compared to data obtained from a separate group of rats which received a single, separate dose of the compound under evaluation."}, "[2]": {"assay": "Pharmacokinetics of clarithromycin in humans, alone vs. in combination with ritonavir", "assay_type": "in vivo", "settings": "oral, healthy human volunteers, 500 mg every 12 hours, single agent, day four of dosing, plasma", "excerpt": "Blood samples were collected on day four of dosing for HPLC determination of plasma concentrations of clarithromycin. Below in Table 2 are shown the results from the pharmacokinetic experiments with clarithromycin in humans."}, "[3]": {"settings": "male, Sprague-Dawley, plasma, oral gavage 10 mg/kg, compound administered as a single agent, plasma"}, "[4]": {"settings": "male, Sprague-Dawley, plasma, oral gavage 10 mg/kg, compound administered as a single agent, plasma, read-out: Cmax"}, "[5]": {"settings": "male, Sprague-Dawley, plasma, oral gavage 10 mg/kg, compound administered as a single agent, plasma, read-out: Tmax"}, "[6]": {"settings": "male, Sprague-Dawley, plasma, oral gavage 10 mg/kg, dosed in combination with ritonavir 10 mg/kg, plasma"}, "[7]": {"settings": "male, Sprague-Dawley, plasma, oral gavage 10 mg/kg, dosed in combination with ritonavir 10 mg/kg, plasma, read-out: Cmax"}, "[8]": {"settings": "male, Sprague-Dawley, plasma, oral gavage 10 mg/kg, dosed in combination with ritonavir 10 mg/kg, plasma, read-out: Tmax"}}, "data": [{"smiles": "Cc1c(O)cccc1C(=O)NC(CSc1ccccc1)C(O)CN1CC2CCCCC2CC1C(=O)NC(C)(C)C", "note": "(centres unmarked) [AG1343]", "values": [{"measurement": "AUC(0-t)", "setting": "[1]; [3]", "result": 1140, "unit": "ng·h/mL"}, {"measurement": "Cmax", "setting": "[1]; [4]", "result": 400, "unit": "ng/mL"}, {"measurement": "Tmax", "setting": "[1]; [5]", "result": 45, "unit": "min"}, {"measurement": "AUC(0-t)", "setting": "[1]; [6]", "result": 11900, "unit": "ng·h/mL"}, {"measurement": "Cmax", "setting": "[1]; [7]", "result": 1810, "unit": "ng/mL"}, {"measurement": "Tmax", "setting": "[1]; [8]", "result": 240, "unit": "min"}]}, {"smiles": "CC[C@H]1OC(=O)[C@H](C)[C@@H](O[C@H]2C[C@@](C)(OC)[C@@H](O)[C@H](C)O2)[C@H](C)[C@@H](O[C@@H]2O[C@H](C)C[C@H](N(C)C)[C@H]2O)[C@](C)(OC)C[C@@H](C)C(=O)[C@H](C)[C@@H](O)[C@]1(C)O", "note": "[clarithromycin]", "values": [{"measurement": "Cmax", "setting": "[2]", "result": 3930, "unit": "ng/mL"}, {"measurement": "AUC(0-t)", "setting": "[2]; read-out: AUC (0-24 h)", "result": 49000, "unit": "ng·h/mL"}]}, {"smiles": "CC(C)(C)NC(=O)[C@@H]1C[C@@H]2CCCC[C@@H]2CN1C[C@@H](O)[C@H](Cc1ccccc1)NC(=O)[C@H](CC(N)=O)NC(=O)c1ccc2ccccc2n1", "note": "[Saquinavir, N-tert-butyl-decahydro-2-[2(R)-hydroxy-4-phenyl-3(S)-[[N-(2-quinolylcarbonyl)-L-asparaginyl]amino]butyl]-(4aS, 8aS)-isoquinoline-3(S)-carboxamide]", "values": [{"measurement": "AUC (0-8 h)", "setting": "[1]; male, Sprague-Dawley, in vivo", "result": 29, "unit": "ng·h/mL"}, {"measurement": "Cmax", "setting": "[1]; male, Sprague-Dawley, in vivo", "result": 80, "unit": "ng/mL"}, {"measurement": "Tmax", "setting": "[1]; male, Sprague-Dawley, in vivo", "result": 10.8, "unit": "min"}]}, {"smiles": "CC(C)(C)NC(=O)[C@@H]1CN(Cc2cccnc2)CCN1C[C@@H](O)C[C@@H](Cc1ccccc1)C(=O)N[C@H]1c2ccccc2C[C@H]1O", "note": "[MK-639, N-(2(R)-hydroxy-1 (S)-indanyl)-2(R)-phenylmethyl-4(S)-hydroxy-5-(1-(4-(3-pyridylmethyl)-2(S)-N′-(t-butylcarboxamido)-piperazinyl))-pentaneamide]", "values": [{"measurement": "AUC (0-8 h)", "setting": "[1]; male, Sprague-Dawley, in vivo", "result": 810, "unit": "ng·h/mL"}, {"measurement": "Tmax", "setting": "[1]; male, Sprague-Dawley, in vivo", "result": 30, "unit": "min"}, {"measurement": "Cmax", "setting": "[1]; male, Sprague-Dawley, in vivo, Cmax", "result": 1030, "unit": "ng/mL"}]}, {"smiles": "CC(C)[C@H](NC(=O)N(C)Cc1ccccn1)C(=O)N[C@@H](Cc1ccccc1)[C@H](O)[C@H](O)[C@H](Cc1ccccc1)NC(=O)[C@@H](NC(=O)N(C)Cc1ccccn1)C(C)C", "note": "[Compound A-77003, (2S,3R,4S,5S)-2,5-Di-(N-((N-methyl)-N-((2-pyridinyl)methyl)amino)carbonylvalinylamino)-3,4-dihydroxy-1,6-diphenyl hexane]", "values": [{"measurement": "AUC(0-t)", "setting": "[1]; [3]", "result": 25, "unit": "ng·h/mL"}, {"measurement": "Cmax", "setting": "[1]; [4]", "result": 70, "unit": "ng/mL"}, {"measurement": "Tmax", "setting": "[1]; [5]", "result": 15, "unit": "min"}, {"measurement": "AUC(0-t)", "setting": "[1]; [6]", "result": 1390, "unit": "ng·h/mL"}, {"measurement": "Cmax", "setting": "[1]; [7]", "result": 960, "unit": "ng/mL"}, {"measurement": "Tmax", "setting": "[1]; [8]", "result": 40.2, "unit": "min"}]}, {"smiles": "CC(C)CN(CC(O)C(Cc1ccccc1)NC(=O)OC1CCOC1)S(=O)(=O)c1ccc(N)cc1", "note": "(centres unmarked) [VX-478]", "values": [{"measurement": "AUC(0-t)", "setting": "[1]; male, Sprague-Dawley, in vivo, oral gavage 10 mg/kg, compound administered as a single agent, plasma", "result": 1690, "unit": "ng·h/mL"}, {"measurement": "Cmax", "setting": "[1]; male, Sprague-Dawley, in vivo, oral gavage 10 mg/kg, compound administered as a single agent, plasma, read-out: Cmax", "result": 1610, "unit": "ng/mL"}, {"measurement": "Tmax", "setting": "[1]; male, Sprague-Dawley, in vivo, oral gavage 10 mg/kg, compound administered as a single agent, plasma, read-out: Tmax", "result": 25.2, "unit": "min"}, {"measurement": "AUC(0-t)", "setting": "[1]; male, Sprague-Dawley, in vivo, oral gavage 10 mg/kg, dosed in combination with ritonavir 10 mg/kg, plasma", "result": 13500, "unit": "ng·h/mL"}, {"measurement": "Cmax", "setting": "[1]; male, Sprague-Dawley, in vivo, oral gavage 10 mg/kg, dosed in combination with ritonavir 10 mg/kg, plasma, read-out: Cmax", "result": 2880, "unit": "ng/mL"}, {"measurement": "Tmax", "setting": "[1]; male, Sprague-Dawley, in vivo, oral gavage 10 mg/kg, dosed in combination with ritonavir 10 mg/kg, plasma, read-out: Tmax", "result": 90, "unit": "min"}]}, {"smiles": "CC(C)[C@H](NC(=O)OCc1ccccn1)C(=O)N[C@@H](Cc1ccccc1)[C@@H](O)C[C@H](Cc1ccccc1)NC(=O)OCc1cccnc1", "note": "[Compound A-80987]", "values": [{"measurement": "AUC (0-8 h)", "setting": "[1]; in vivo", "result": 1450, "unit": "ng·h/mL"}, {"measurement": "Cmax", "setting": "[1]; in vivo", "result": 2420, "unit": "ng/mL"}, {"measurement": "Tmax", "setting": "[1]; in vivo", "result": 15, "unit": "min"}]}]}
